Reference: patent US11596145B2, “Anti-freezing agent for protecting biological tissue during freezing treatment and preparation method therefor” (TAIPEI VETERANS GENERAL HOSPITAL, priority 2016, dated 2023)

Legend:
[1] = tested on: rat knee cartilage; test: Protective effect on rat knee cartilage during liquid nitrogen freezing (HE stain of pathological sections); details: coated at articular cartilage; liquid nitrogen 20 minutes, warmed to room temperature 20 minutes
Method: The rat knee cartilage was taken out. The control group A was not treated, and the control group B was coated with a conventional commercially available anti-freezing agent (dimethyl sulfoxide) at the articular cartilage. The experimental groups were coated with the anti-freezing agent of the present invention at the articular cartilage, separately placed in liquid nitrogen for 20 minutes, slowly warmed to room temperature for 20 minutes, fixed with 4% paraformaldehyde, pathologically sectioned, and then stained with hematoxylin-eosin (HE stain). The pathological sections of hematoxylin-eosin stained control group (A), control group (B), and experimental group (C). are shown in FIG. 2. After freezing, in the control group A the cartilage surface became brittle and uneven (as indicated by the arrow), and the control group B was also uneven (as indicated by the arrow).

[2] = tested on: human cartilage tissue; test: Protection of human cartilage tissue during liquid nitrogen freezing (HE stain, separation of cartilage from hard bone); details: applied to articular cartilage, liquid nitrogen 20 minutes, warmed to room temperature 20 minutes
From the text: Unneeded normal cartilage tissues (residual specimens) taken from the human body during surgery were divided into three groups and treated separately: control group A was not treated; for control group B, traditional commercially available anti-freezing agent was applied to articular cartilage; and for experimental group C, the anti-freezing agent of the present invention was applied to the articular cartilage. The control and experimental groups were separately placed in liquid nitrogen to freeze for 20 minutes, slowly warmed to room temperature for 20 minutes, fixed with 4% paraformaldehyde, pathologically sectioned, and then stained by hematoxylin-eosin. […] The size of separation was 2.16 mm in the control group A, 1.2 mm in the control group B, and 0.45 mm in the experimental group. It was shown that the anti-freezing agent of the present invention can protect cartilage tissue and reduce the separation of cartilage and hard bone caused by freezing.

[3] = tested on: human cartilage tissue; test: Change of cartilage color index (luminance level of cartilage surface) after freezing; details: applied to articular cartilage; liquid nitrogen 20 minutes, warmed to room temperature 20 minutes
From the text: Unneeded normal cartilage tissues (residual specimens) taken from the human body during surgery were divided into three groups and treated separately: control group A was not treated; for control group B, traditional commercially available anti-freezing agent was applied to articular cartilage; and for experimental group C, the anti-freezing agent of the present invention was applied to the articular cartilage. The control and experimental groups were separately placed in liquid nitrogen to freeze for 20 minutes, and then slowly warmed to room temperature for 20 minutes. The color index change of the cartilage surface was observed by analyzing the decrease of luminance level of the cartilage surface.

## C[S+](C)[O-] [dimethyl sulfoxide]
[1]
  cartilage surface after freezing (hematoxylin-eosin stained section): uneven
[2]; HE stain
  separation at the intersection of the cartilage bottom and the hard bone after freezing: separation (the stellate) also occurred
[2]; untreated control 2.16 mm
  size of separation: 1.2 mm
[3]
  decrease of luminance level of the cartilage surface after freezing: significantly decreased
